Data reported in patent US20070141673A1, “Tool for quantitative real-time analysis of viral gene expression dynamics in single living cells” (priority 2005, published 2007).

Legend:
[1] = test system: HIV-1 VSV-G pseudotype (NL4.3-luc) in MDM cells; format: cell-based
[2] = test system: HIV-1 VSV-G pseudotype (NL4.3-luc) in MDM cells; format: cell-based; remark: listed apart in the source
[3] = test system: HIV-1 VSV-G pseudotype (NL4.3-luc) in MDM cells; format: cell-based; remark: listed apart in the source
[4] = test system: HIV-1 VSV-G pseudotype (NL4.3-luc) in CD4 T cells; format: cell-based
CD4 T cells = assay: Flow-cytometry analysis of activation markers CD25 and CD69; format: cell-based, human; details: PHA treatment during three days before infection

## O=C(O)C(=O)CC(=O)c1cccn1Cc1ccc(F)cc1 [L-731,988]
[1]
  luciferase activity in cell lysates: reduced in a dose-dependent manner
[2]
  number of cells emitting bioluminescence: reduction in the number of cells emitting bioluminescence
  number of photons emitted per individual cell: significant reduction in the number of photons emitted per individual cell
  overall averaged bioluminescence intensity: decreased

## CCCCCCCCCCCCCC(=O)O[C@@H]1[C@@H](C)[C@@]2(O)[C@@H](C=C(CO)C[C@]3(O)C(=O)C(C)=C[C@@H]23)[C@@H]2C(C)(C)[C@]12OC(C)=O [PMA, phorbol 12-myristate 13-acetate]
[3]
  time after stimulation at which bioluminescence signal began to increase: 4 h

## phytohemagglutinin [PHA]
[4]
  duration of increase of photon emission until stable plateau level: 4 h
  positive lymphocytes (bioluminescence) in cells treated before infection: abundant numbers of positive lymphocytes
  time after mitogen stimulation at which photon emission began to be detected in formerly negative cells: 8 h
CD4 T cells
  global activation of CD4 T cells: > 98%
